Molecular target: T1, CAMK1D (CaMKI delta) (Homo sapiens, UniProt Q8IU85)
T1 construct: purchased Thermo Fisher Scientific (Life Technologies) SelectScreen
Assay: SelectScreen Z'LYTE
Format: biochemical
Outline: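 Percent values come from Thermo SelectScreen profiling of NU5455, combining activity and binding assays. CSF1R was run in Z'LYTE format at Km app ATP, and CAMK1 in Adapta format with ATP listed at 10.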

T1 sequence (Q8IU85 whole entry): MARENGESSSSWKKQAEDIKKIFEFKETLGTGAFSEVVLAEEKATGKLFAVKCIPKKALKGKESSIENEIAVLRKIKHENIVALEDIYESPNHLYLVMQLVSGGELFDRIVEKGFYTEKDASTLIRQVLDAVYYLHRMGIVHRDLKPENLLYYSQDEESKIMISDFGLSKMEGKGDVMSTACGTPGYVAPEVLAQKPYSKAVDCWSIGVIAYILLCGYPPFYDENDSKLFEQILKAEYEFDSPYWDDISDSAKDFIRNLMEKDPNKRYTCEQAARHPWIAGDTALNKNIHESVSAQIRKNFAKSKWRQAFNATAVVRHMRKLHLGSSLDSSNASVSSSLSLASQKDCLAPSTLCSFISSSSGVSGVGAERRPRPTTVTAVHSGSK

CN(C(=O)CN1CCOCC1)c1ccc2sc3c(-c4cccc5c(=O)cc(N6CC7CCC(C6)O7)oc45)cccc3c2c1 [NU5455]
inhibition at 1 µM: 4.1%
